Measurements from publication PMC4057422, “Apoptotic Death of Prostate Cancer Cells by a Gonadotropin-Releasing Hormone-II Antagonist” (PLoS ONE, 2014).
Read-outs that look alike come from different tables or passages of the source. Square brackets hold non-standard residues; d marks the D form. Ends that are not written are not given here. Peptide text beside a SMILES is read from it. dPhe(4-Cl) = N[C@H](Cc1ccc(Cl)cc1)C(=O)O; d2Nal = N[C@H](Cc1ccc2ccccc2c1)C(=O)O; dCit = NC(=O)NCCC[C@@H](N)C(=O)O; d3Pal = N[C@H](Cc1cccnc1)C(=O)O

How the values were obtained:
[1] = tested on: PC3 cells; conditions: FITC-conjugated form, prostate cancer cells; ref [28]; cited from earlier work
Source text: In previous reports, we and other groups observed that radiolabeled GnRH-II bound to prostate cancer cells through interaction with an approximately 80-kDa protein whose identity was designated as glucose-regulated protein 75 (GRP75) based on liquid chromatography-electrospray ionization-tandem mass spectrometry, [28], [29]. […] Since GRP75 is found predominantly in mitochondria, the final destination of SN09-2 may not be the cell surface. To explore the subcellular location of the antag ...

[2] = tested on: cytochrome c (PC3 cells); conditions: ref [28]; cited from earlier work
Source text: (§1) Mitochondrial proteins play pivotal roles in organelle-specific functions such as energy conversion, calcium hemeostasis, ROS generation, and electron transport, [40]. The disturbance of such mitochondrial functions is a critical step towards cell death through the activation of either apoptotic or autophagic pathways, [42]. GRP75 a mitochondrial chaperon is an essential protein for mitochondria biogenesis by refolding and sorting mitochondrial proteins. Elevation of GRP75 is easily observed in various cancer cells, while knockdown of the protein induces mitochondrial dysfunc ...

[3] = tested on: prostate cancer cells; conditions: ref [28]; cited from earlier work
Source text: as §1

[4] = biological target: T1, green monkey GnRHR-II (gmGnRHR-II) (Chlorocebus aethiops, UniProt Q95MH6); assay: Reporter gene assay (SRE-luc), antagonism of GnRH-II at gmGnRHR-II; assay type: cell-based
T1 construct: expressed in transfected cells; host or cells: CV-1 cells
T1 sequence (Q95MH6 1-379): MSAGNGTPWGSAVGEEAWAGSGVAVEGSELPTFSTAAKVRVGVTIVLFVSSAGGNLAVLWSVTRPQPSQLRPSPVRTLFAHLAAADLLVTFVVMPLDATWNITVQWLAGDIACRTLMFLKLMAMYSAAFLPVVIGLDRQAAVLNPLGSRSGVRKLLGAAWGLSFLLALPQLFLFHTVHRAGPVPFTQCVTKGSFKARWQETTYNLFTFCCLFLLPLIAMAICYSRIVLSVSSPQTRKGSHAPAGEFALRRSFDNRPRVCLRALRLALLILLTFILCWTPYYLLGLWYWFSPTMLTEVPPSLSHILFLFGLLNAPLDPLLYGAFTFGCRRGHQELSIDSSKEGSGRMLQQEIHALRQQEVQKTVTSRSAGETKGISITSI
Procedure: (§2) CV-1 Cells were culture overnight in 24-well plates and subsequently transfected with liposome complex containing pGL3/SRE-luc plasmids with bull frog GnRHR-II (bfGnRHR-II) or green monkey GnRHR-II (gmGnRHR-II). Another 48 h later, cells treated with GnRH-II (1 nM for bfGnRHR-II, 10 nM gmGnRHR-II) and different concentration of SN09-2 or Trp-1 for 6 h were washed with PBS and solublized with lysis buffer. Luciferase activity of cell extracts was determined using the standard luciferase assay system from BioTek Instrument, Inc. (Winooski, VT). To determine transfection efficiency, luciferase activities were normalized to the β-gal activity. All data are calculated from at least three independent experiments normalized to untreated groups.

[5] = tested on: PC3 xenograft tumor; conditions: cited from earlier work; for growth of tumor formed by implanted PC3 cells: previous studies, ref [27], [28]
Procedure: PC3 cells were implanted into the flanks of nude mice. After tumor formation, SN09-2 was injected into the mice at different concentrations for 25 consecutive days. […] In the group treated with 0.1 mg SN09-2, tumor volumes were reduced by 27%, compared with the vehicle-treated group (Fig. 7A, B). […] The di ... || Both GnRH-I agonists and antagonists are able to inhibit the growth of cancer cells in sex hormone-regulated tissues including ovarian cancer and prostate cancer, by directly stimulating cell death pathways as well as by decreasing gonadotropin and sex hormone levels, [32], [33]. Because of the sequence similarity between GnRH-I and GnRH-II, GnRH-II and its antagonists are considered to exert similar effects on these types of cancer, although its receptor has not been identified in human and its action mechanisms have not been well elucidated. In some reports, GnRH-II has been shown ...

[6] = biological target: bull frog GnRHR-II (bfGnRHR-II) (Aquarana catesbeiana, UniProt Q9DE60); assay: Reporter gene assay (SRE-luc), antagonism of GnRH-II at bfGnRHR-II; assay type: cell-based; conditions: CV-1 cells, GnRH-II 1 nM, antagonist 6 h, luciferase normalized to β-gal, at least three independent experiments
Sequence of bull frog GnRHR-II (bfGnRHR-II) (Q9DE60 entry or part of it): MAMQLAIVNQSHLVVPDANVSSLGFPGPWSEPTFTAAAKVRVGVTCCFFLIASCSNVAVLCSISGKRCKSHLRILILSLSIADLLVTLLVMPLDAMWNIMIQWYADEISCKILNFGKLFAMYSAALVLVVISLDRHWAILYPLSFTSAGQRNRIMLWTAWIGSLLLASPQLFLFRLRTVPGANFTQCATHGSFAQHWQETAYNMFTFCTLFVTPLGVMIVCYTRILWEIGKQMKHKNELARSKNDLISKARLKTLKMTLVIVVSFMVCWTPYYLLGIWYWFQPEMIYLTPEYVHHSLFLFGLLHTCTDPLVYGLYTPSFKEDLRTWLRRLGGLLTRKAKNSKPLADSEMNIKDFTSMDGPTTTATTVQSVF
Procedure: as §2

[7] = tested on: caspase-3 (PC3 cells); conditions: ref [28], cited from earlier work
Source text: as §1, with “Next, we examined caspase-3 activation by SN09-2. […] We also investigated caspase-3 cleavage in LNCaP and DU145 cells. […] Immunocytochemistry for actively cleaved caspase- ... || Mitochondrial” for “Mitochondrial”

[8] = tested on: PC3 cells; assay type: cell-based, human; conditions: for growth inhibition of PC3 cells: 10 µM
Procedure: (§3) Cells were seeded in 12-well plates in triplicate (1×10^4 cells/well). After 24 h, cells were treated with the indicated concentrations of GnRH-II antagonists solubilized in 0.1% DMSO every 24 h for the indicated number of days. Then, cells were washed with phosphate-buffered saline (PBS), dissociated with trypsin/EDTA, and re-suspended in 500 µl complete growth media. Trypan blue (0.4%) dye-excluding cells were counted under an inverted microscope (Olympus, Tokyo, Japan).

[9] = tested on: prostate cancer cells; conditions: cited from earlier work; for displacement of radiolabeled GnRH-II binding: various human prostate cancer cells, ref [27]
Source text: GnRH-II is likely to function on prostate cancer cells by interacting with unknown proteins, based on our previous observation that radiolabeled GnRH-II was able to bind various human prostate cancer cells.

[10] = Tolerability in nude mice (histology, blood chemistry, injection site); assay type: in vivo, male athymic nude mice (BALB/c-nu)
Procedure: Six-week-old male athymic nude mice (BALB/c-nu) were obtained from Harlan (Houston, TX). Mice were housed under specific pathogen-free conditions in an individually ventilated caging system. All experimental procedures were performed after receiving approval from the Institutional Animal Care and Use Committee of Clinical Research Institute in Seoul National University Hospital. PC3 cells (6×10^6) were injected into the right flank of the mice. Ten days after cell injection, tumors with volumes of around 20–25 mm^3 developed in most mice; tumor volumes were measured every day. Tumor volumes were determined by two perpendicular dimensions [length (L) and width (W)] and the height (H), measured using Vernier calipers (the formula is V = (π/6) × (W×L×H). From this time, SN09-2 (acetic acid form) dissolved in 5% N,N-dimethylacetamide (DMA), 10% glycerol, and 85% distilled water which is biocompatible solvent were subcutaneously injected into the mice for 25 consecutive days. The tumor size in each mouse was measured every day. Six to seven mice were used for each experimental group.

[11] = tested on: DU145 cells; assay: Cell viability assay, DU145; assay type: cell-based, human; conditions: 10 µM, 5% serum, 3 days
Procedure: as §3

[12] = Dissolution in solvents / at the injection site; assay type: physicochemical
[13] = tested on: human T cells; conditions: ref [20]; cited from earlier work
Source text: In most vertebrates, the other type of GnRH, called GnRH-II, is identified, which is structurally conserved in evolution from fish to mammals [12]–[14]. GnRH-II is expressed not only in the brain but also in peripheral reproductive and immune tissues. This wide expression pattern may confer a variety of physiological functions on the peptide. Similar to GnRH-I, GnRH-II is able to regulate reproduction in females by stimulating the secretion of LH and FSH [16], [17].

[14] = tested on: ovarian cancer cells; conditions: cited from earlier work
Source text: GnRH-II is likely to function on prostate cancer cells by interacting with unknown proteins, based on our previous observation that radiolabeled GnRH-II was able to bind various human prostate cancer cells. […] Because of the sequence similarity between GnRH-I and GnRH-II, GnRH-II and its antagonists are considered to exert similar effects on these types of cancer, although its receptor has not been identified in human and its action mechanisms have not been well elucidated. In some reports, GnRH-II has been shown ...

## Ac-[d2Nal][dPhe(4-Cl)][d3Pal]SY[dCit]WYP[dA]-NH2 [Trp-1, GnRH-II antagonist of the authors' earlier report]
[1]
  mitochondrial accumulation in presence of unlabeled GnRH-II: attenuated by unlabeled GnRH-II
[2]
  cytochrome c release: does not induce
[3]
  autophagic cell death: induces autophagic cell death
[4]; CV-1 cells, SRE-luc reporter, GnRH-II 10 nM, antagonist 6 h, luciferase normalized to β-gal, at least three independent experiments
  antagonism of GnRH-II at gmGnRHR-II: partial
[5]; 0.1 mg, PC3 xenograft, quoted comparison, ref [28]
  inhibitory activity on tumor volume: 60%
[5]
  growth of tumor formed by implanted PC3 cells: inhibited growth of the tumor
[6]
  IC50: 250 nM
[7]; previous results
  activation of the apoptotic machinery: could not trigger the activation of the apoptotic machinery
[7]
  caspase-3 activation: does not induce
[8]; different concentrations, 5% serum, 3 days, versus DMSO control
  PC3 cell growth inhibition, dose response: significantly attenuated cell growth in a dose-dependent manner

## GnRH-I: gonadotropin-releasing hormone-I synthesized in the hypothalamus
[9]
  displacement of radiolabeled GnRH-II binding: not by GnRH-I

## FITC-conjugated GnRH-II: FITC-conjugated GnRH-II (QHWSHGWYPG; ends and bridges not checked; also: FITC-conjugated, site not given here; UniProt O43555 24-33, looked up)
[1]
  mitochondrial accumulation in presence of unlabeled GnRH-II: attenuated by unlabeled GnRH-II

## CC(=O)N[C@H](Cc1ccc2ccccc2c1)C(=O)N[C@H](Cc1ccc(Cl)cc1)C(=O)N[C@H](Cc1cccnc1)C(=O)N[C@@H](CO)C(=O)N[C@@H](Cc1ccccc1)C(=O)N[C@H](CCCCN)C(=O)N[C@@H](Cc1c[nH]c2ccccc12)C(=O)N[C@@H](Cc1ccc(O)cc1)C(=O)N[C@@H](CCCNC(=N)N)C(=O)N[C@H](C)C(N)=O [SN09-2, Ac-D-Nal(2)-D-phe(4Cl)-D-Pal(3)-Ser-Phe-D-Lys-Trp-Tyr-Arg-D-Ala-NH2] (Ac-[d2Nal][dPhe(4-Cl)][d3Pal]SF[dK]WYR[dA]-NH2)
[10]; after 25 days subcutaneous treatment
  liver and kidney histopathology: no histo-pathological abnormalities
[10]; after 25 days subcutaneous treatment, data not shown
  serum alkaline phosphatase, aspartate aminotransferase, alanine aminotransferase, urea nitrogen, creatinine, total bilirubin: did not differ between vehicle and SN09-2-treated mice
[10]; mice, several days after subcutaneous injection
  skin irritation / densely populated cells at the injection site: no skin irritation or densely populated cells were detected
[10]; mice, subcutaneous treatment
  edema-like phenotype: not observed
[10]; xenograft model
  adverse effects to the animal: without any apparent adverse effects
[11]
  growth inhibition of DU145 cells: ≈ 50%
[12]; 5% N,N′-dimethylacetamide (DMA) formulation
  solubility in 5% DMA: appeared well dissolved
[12]; DMSO, solvent for in vitro treatment
  solubility in DMSO: dissolved well in DMSO
[4]
  IC50: 1900 nM
[8]; 5% serum, 4 days
  growth inhibition of PC3 cells: 91%
[8]; 10% serum, 4 days
  growth inhibition of PC3 cells: 88%
[8]; higher serum concentrations, 4 days
  growth inhibition of PC3 cells: more than 85%
[8]; low serum concentrations (less than 2% FBS), within 4 days
  growth inhibition of PC3 cells: more than 95%

## cetrorelix
[13]
  block of GnRH-II-induced laminin receptor expression: not blocked
[5]
  growth of tumor formed by implanted PC3 cells: very weak effect on tumor growth

## GnRH-II: the other type of GnRH, structurally conserved in evolution from fish to mammals (QHWSHGWYPG; ends and bridges not checked; UniProt O43555 24-33, looked up)
[14]; ref [26], [27]
  inhibition of proliferation of ovarian cancer cells: inhibit the proliferation
[14]; ref [33]
  anti-proliferative effect in ovarian cancer, versus GnRH-I: stronger anti-proliferative effect than that of GnRH-I
[13]
  laminin receptor expression: stimulates laminin receptor expression
[9]; ref [26], [27]
  inhibition of proliferation of prostate cancer cells: inhibit the proliferation
[9]
  displacement of radiolabeled GnRH-II binding: displaced by unlabeled GnRH-II
